# System: MRSA ATCC 43300
# Assay: MIC, broth microdilution (CO-ADD), MRSA
# Assay type: cell-based, methicillin-resistant S. aureus
# Conditions: Staphylococcus aureus; MRSA ATCC 43300; top dose 32 µg/mL; read-out: MIC MRSA
row,Compound,MIC [µM]
1,O=C(NCCCNCCCCCCCCNCCCNC(=O)c1c[nH]c2ccccc12)c1c[nH]c2ccccc12.O=C(O)C(F)(F)F.O=C(O)C(F)(F)F [Compound 12d],≤ 0.32
2,O=C(NCCCNCCCCCCCCCCNCCCNC(=O)c1c[nH]c2ccccc12)c1c[nH]c2ccccc12.O=C(O)C(F)(F)F.O=C(O)C(F)(F)F [Compound 12e],≤ 0.31
3,O=C(NCCCNCCCCCCCCCCCCNCCCNC(=O)c1c[nH]c2ccccc12)c1c[nH]c2ccccc12.O=C(O)C(F)(F)F.O=C(O)C(F)(F)F [Compound 12f],≤ 0.3

# System: K. pneumoniae ATCC 700603
# Assay: MIC, broth microdilution (CO-ADD), K. pneumoniae
# Conditions: top dose 32 µg/mL
row,Compound,MIC Kp [µM]
1,O=C(NCCCNCCCCCCCCNCCCNC(=O)c1c[nH]c2ccccc12)c1c[nH]c2ccccc12.O=C(O)C(F)(F)F.O=C(O)C(F)(F)F [Compound 12d],>41
2,O=C(NCCCNCCCCCCCCCCNCCCNC(=O)c1c[nH]c2ccccc12)c1c[nH]c2ccccc12.O=C(O)C(F)(F)F.O=C(O)C(F)(F)F [Compound 12e],>40
3,O=C(NCCCNCCCCCCCCCCCCNCCCNC(=O)c1c[nH]c2ccccc12)c1c[nH]c2ccccc12.O=C(O)C(F)(F)F.O=C(O)C(F)(F)F [Compound 12f],>39

# System: not listed separately
# Assay: Cytotoxicity assay (resazurin)
# Assay type: cell-based
# Conditions: human, HEK293 cells, mean n = 2
row,Compound,IC50 at 20 h [µM]
1,O=C(NCCCNCCCCCCCCNCCCNC(=O)c1c[nH]c2ccccc12)c1c[nH]c2ccccc12.O=C(O)C(F)(F)F.O=C(O)C(F)(F)F [Compound 12d],> 41
2,O=C(NCCCNCCCCCCCCCCNCCCNC(=O)c1c[nH]c2ccccc12)c1c[nH]c2ccccc12.O=C(O)C(F)(F)F.O=C(O)C(F)(F)F [Compound 12e],> 40
3,O=C(NCCCNCCCCCCCCCCCCNCCCNC(=O)c1c[nH]c2ccccc12)c1c[nH]c2ccccc12.O=C(O)C(F)(F)F.O=C(O)C(F)(F)F [Compound 12f],> 39

# System: human red blood cells
# Assay: Hemolytic assay
# Assay type: cell-based
# Conditions: 10% hemolytic activity, mean n = 2
# Procedure: Human whole blood was washed three times with three volumes of 0.9% NaCl and then resuspended in the same solution to a concentration of 0.5 × 10^8 cells/mL, as determined by the manual cell count in a Neubauer hemocytometer. The washed cells were then added to the 384-well compound-containing plates for a final volume of 50 μL. After a 10 min shake on a plate shaker, the plates were then incubated for 1 h at 37 °C. After incubation, the plates were centrifuged at 1000× g for 10 min to pellet cells and debris; 25 μL of the supernatant was then transferred to a polystyrene 384-well assay plate. Hemolysis was determined by measuring the supernatant absorbance at […] (OD405). The absorbance was measured using a Tecan M1000 Pro monochromator plate reader. HC10 and HC50 (concentrations at 10% and 50% hemolysis, respectively) were calculated by a curve fitting the inhibition values vs. log (concentration) using a sigmoidal dose–response function with variable fitting values for the top, bottom, and slope.
row,Compound,Hemolysis HC10 [µM]
1,O=C(NCCCNCCCCCCCCNCCCNC(=O)c1c[nH]c2ccccc12)c1c[nH]c2ccccc12.O=C(O)C(F)(F)F.O=C(O)C(F)(F)F [Compound 12d],>41
2,O=C(NCCCNCCCCCCCCCCNCCCNC(=O)c1c[nH]c2ccccc12)c1c[nH]c2ccccc12.O=C(O)C(F)(F)F.O=C(O)C(F)(F)F [Compound 12e],>40
3,O=C(NCCCNCCCCCCCCCCCCNCCCNC(=O)c1c[nH]c2ccccc12)c1c[nH]c2ccccc12.O=C(O)C(F)(F)F.O=C(O)C(F)(F)F [Compound 12f],>39

# System: E. coli ATCC 25922
# Assay: MIC, broth dilution, E. coli
# Assay type: cell-based, Escherichia coli
# Conditions: Escherichia coli, ATCC25922; E. coli ATCC 25922, 18 h
row,Compound,MIC [µM]
1,O=C(NCCCNCCCCCCCCNCCCNC(=O)c1c[nH]c2ccccc12)c1c[nH]c2ccccc12.O=C(O)C(F)(F)F.O=C(O)C(F)(F)F [Compound 12d],32.4
2,O=C(NCCCNCCCCCCCCCCNCCCNC(=O)c1c[nH]c2ccccc12)c1c[nH]c2ccccc12.O=C(O)C(F)(F)F.O=C(O)C(F)(F)F [Compound 12e],125
3,O=C(NCCCNCCCCCCCCCCCCNCCCNC(=O)c1c[nH]c2ccccc12)c1c[nH]c2ccccc12.O=C(O)C(F)(F)F.O=C(O)C(F)(F)F [Compound 12f],15.1

# System: E. coli ATCC 25922
# Assay: Erythromycin potentiation against E. coli
# Assay type: cell-based, Escherichia coli
# Conditions: erythromycin at 2 µg/mL (2.7 µM), E. coli
# Description: (§1) These measurements were independently repeated in triplicate.
row,Compound,Erythro/Ec fold-change (intrinsic MIC / combination MIC) [fold]
1,O=C(NCCCNCCCCCCCCCCNCCCNC(=O)c1c[nH]c2ccccc12)c1c[nH]c2ccccc12.O=C(O)C(F)(F)F.O=C(O)C(F)(F)F [Compound 12e],2
2,O=C(NCCCNCCCCCCCCCCCCNCCCNC(=O)c1c[nH]c2ccccc12)c1c[nH]c2ccccc12.O=C(O)C(F)(F)F.O=C(O)C(F)(F)F [Compound 12f],2

# Same assay, conditions: erythromycin at 2 µg/mL (2.7 µM), mean n = 3
row,Compound,Erythro/Ec: concentration required to restore erythromycin activity (combination MIC) [µM]
1,O=C(NCCCNCCCCCCCCCCNCCCNC(=O)c1c[nH]c2ccccc12)c1c[nH]c2ccccc12.O=C(O)C(F)(F)F.O=C(O)C(F)(F)F [Compound 12e],62.4
2,O=C(NCCCNCCCCCCCCCCCCNCCCNC(=O)c1c[nH]c2ccccc12)c1c[nH]c2ccccc12.O=C(O)C(F)(F)F.O=C(O)C(F)(F)F [Compound 12f],7.54

# System: C. albicans ATCC 90028
# Assay: Antifungal MIC (CO-ADD), C. albicans
# Assay type: cell-based
# Conditions: Candida albicans, ATCC90028, top dose 32 µg/mL
# Procedure: (§2) For the antifungal assay, fungi strains were cultured for 3 days on YPD agar at 30 °C. A yeast suspension of 1 × 10^6 to 5 × 10^6 CFU/mL was prepared from five colonies. These stock suspensions were diluted with a yeast nitrogen base (YNB) (Becton Dickinson, 233520, New South Wales, Australia) broth to a final concentration of 2.5 × 10^3 CFU/mL. […] The plates were covered and incubated at 35 °C for 36 h without shaking. C. albicans MICs were determined by measuring the absorbance at OD530. For C. neoformans, resazurin was added at a 0.006% final concentration to each well and incubated for a further 3 h before the MICs were determined by measuring the absorbance at OD570–600. […] Fluconazole was used as a positive fungal inhibitor standard for C. albicans and C. neoformans. […] The quality control (QC) of the assays was determined by the antimicrobial controls and the Z′-factor (using positive and negative controls).
row,Compound,MIC [µM]
1,O=C(NCCCNCCCCCCCCNCCCNC(=O)c1c[nH]c2ccccc12)c1c[nH]c2ccccc12.O=C(O)C(F)(F)F.O=C(O)C(F)(F)F [Compound 12d],> 41
2,O=C(NCCCNCCCCCCCCCCNCCCNC(=O)c1c[nH]c2ccccc12)c1c[nH]c2ccccc12.O=C(O)C(F)(F)F.O=C(O)C(F)(F)F [Compound 12e],> 40
3,O=C(NCCCNCCCCCCCCCCCCNCCCNC(=O)c1c[nH]c2ccccc12)c1c[nH]c2ccccc12.O=C(O)C(F)(F)F.O=C(O)C(F)(F)F [Compound 12f],≤ 0.3

# System: C. neoformans ATCC 208821
# Assay: Antifungal MIC (CO-ADD), C. neoformans
# Assay type: cell-based
# Conditions: Cryptococcus neoformans, ATCC208821, top dose 32 µg/mL
# Procedure: as §2
row,Compound,MIC [µM]
1,O=C(NCCCNCCCCCCCCNCCCNC(=O)c1c[nH]c2ccccc12)c1c[nH]c2ccccc12.O=C(O)C(F)(F)F.O=C(O)C(F)(F)F [Compound 12d],≤ 0.32
2,O=C(NCCCNCCCCCCCCCCNCCCNC(=O)c1c[nH]c2ccccc12)c1c[nH]c2ccccc12.O=C(O)C(F)(F)F.O=C(O)C(F)(F)F [Compound 12e],≤ 0.31
3,O=C(NCCCNCCCCCCCCCCCCNCCCNC(=O)c1c[nH]c2ccccc12)c1c[nH]c2ccccc12.O=C(O)C(F)(F)F.O=C(O)C(F)(F)F [Compound 12f],≤ 0.3

# System: S. aureus ATCC 25923
# Assay: MIC, broth dilution, S. aureus
# Assay type: cell-based, Staphylococcus aureus
# Conditions: Staphylococcus aureus, ATCC25923; S. aureus ATCC 25923, 18 h; read-out: MIC Sa
row,Compound,MIC [µM]
1,O=C(NCCCNCCCCCCCCNCCCNC(=O)c1c[nH]c2ccccc12)c1c[nH]c2ccccc12.O=C(O)C(F)(F)F.O=C(O)C(F)(F)F [Compound 12d],64.7
2,O=C(NCCCNCCCCCCCCCCNCCCNC(=O)c1c[nH]c2ccccc12)c1c[nH]c2ccccc12.O=C(O)C(F)(F)F.O=C(O)C(F)(F)F [Compound 12e],31.2
3,O=C(NCCCNCCCCCCCCCCCCNCCCNC(=O)c1c[nH]c2ccccc12)c1c[nH]c2ccccc12.O=C(O)C(F)(F)F.O=C(O)C(F)(F)F [Compound 12f],3.77

# System: P. aeruginosa ATCC 27853
# Assay: Doxycycline potentiation against P. aeruginosa
# Assay type: cell-based, Pseudomonas aeruginosa
# Conditions: doxycycline at 2 µg/mL (4.5 µM), P. aeruginosa ATCC 27853
# Description: as §1
row,Compound,Dox/Pa fold-change (intrinsic MIC / combination MIC) [fold]
1,O=C(NCCCNCCCCCCCCNCCCNC(=O)c1c[nH]c2ccccc12)c1c[nH]c2ccccc12.O=C(O)C(F)(F)F.O=C(O)C(F)(F)F [Compound 12d],> 8
2,O=C(NCCCNCCCCCCCCCCNCCCNC(=O)c1c[nH]c2ccccc12)c1c[nH]c2ccccc12.O=C(O)C(F)(F)F.O=C(O)C(F)(F)F [Compound 12e],> 4
3,O=C(NCCCNCCCCCCCCCCCCNCCCNC(=O)c1c[nH]c2ccccc12)c1c[nH]c2ccccc12.O=C(O)C(F)(F)F.O=C(O)C(F)(F)F [Compound 12f],8

# Same assay, conditions: doxycycline at 2 µg/mL (4.5 µM), P. aeruginosa ATCC 27853, mean n = 3
row,Compound,Dox/Pa: concentration required to restore doxycycline activity (combination MIC) [µM]
1,O=C(NCCCNCCCCCCCCNCCCNC(=O)c1c[nH]c2ccccc12)c1c[nH]c2ccccc12.O=C(O)C(F)(F)F.O=C(O)C(F)(F)F [Compound 12d],32.3
2,O=C(NCCCNCCCCCCCCCCNCCCNC(=O)c1c[nH]c2ccccc12)c1c[nH]c2ccccc12.O=C(O)C(F)(F)F.O=C(O)C(F)(F)F [Compound 12e],62.4
3,O=C(NCCCNCCCCCCCCCCCCNCCCNC(=O)c1c[nH]c2ccccc12)c1c[nH]c2ccccc12.O=C(O)C(F)(F)F.O=C(O)C(F)(F)F [Compound 12f],15.1

# System: A. baumannii ATCC 19606
# Assay: MIC, broth microdilution (CO-ADD), A. baumannii
# Assay type: cell-based, Acinetobacter baumannii
# Conditions: Acinetobacter baumannii, ATCC19606, top dose 32 µg/mL
row,Compound,MIC [µM]
1,O=C(NCCCNCCCCCCCCNCCCNC(=O)c1c[nH]c2ccccc12)c1c[nH]c2ccccc12.O=C(O)C(F)(F)F.O=C(O)C(F)(F)F [Compound 12d],> 41
2,O=C(NCCCNCCCCCCCCCCNCCCNC(=O)c1c[nH]c2ccccc12)c1c[nH]c2ccccc12.O=C(O)C(F)(F)F.O=C(O)C(F)(F)F [Compound 12e],> 40
3,O=C(NCCCNCCCCCCCCCCCCNCCCNC(=O)c1c[nH]c2ccccc12)c1c[nH]c2ccccc12.O=C(O)C(F)(F)F.O=C(O)C(F)(F)F [Compound 12f],4.82

# System: P. aeruginosa ATCC 27853
# Assay: MIC, broth dilution, P. aeruginosa
# Assay type: cell-based, Pseudomonas aeruginosa
# Conditions: Pseudomonas aeruginosa, ATCC27853; P. aeruginosa ATCC 27853, 18 h; read-out: MIC Pa
row,Compound,MIC [µM]
1,O=C(NCCCNCCCCCCCCNCCCNC(=O)c1c[nH]c2ccccc12)c1c[nH]c2ccccc12.O=C(O)C(F)(F)F.O=C(O)C(F)(F)F [Compound 12d],> 259
2,O=C(NCCCNCCCCCCCCCCNCCCNC(=O)c1c[nH]c2ccccc12)c1c[nH]c2ccccc12.O=C(O)C(F)(F)F.O=C(O)C(F)(F)F [Compound 12e],> 250
3,O=C(NCCCNCCCCCCCCCCCCNCCCNC(=O)c1c[nH]c2ccccc12)c1c[nH]c2ccccc12.O=C(O)C(F)(F)F.O=C(O)C(F)(F)F [Compound 12f],121

# Reference: article PMC10967822, “Antimicrobial Indole-3-Carboxamido-Polyamine Conjugates Target Bacterial Membranes and Are Antibiotic Potentiators” (Biomolecules, 2024)
